{"source": "patent US7293985B2", "about": "(priority 1998, dated 2007)", "key": {"[1]": {"test_system": "Vesicular stomatitis virus (VSV)", "type": "cell-based"}, "physchem [2]": {"assay": "physchem", "details": "pH 7"}, "physchem [3]": {"assay": "physchem", "details": "buffer"}, "[4]": {"test_system": "murine red blood cells (RBCs)", "details": "mouse, in vivo"}, "Yersinia enterocolitica": {"test_system": "Yersinia enterocolitica", "type": "cell-based"}, "red blood cell membranes": {"test_system": "red blood cell membranes", "details": "3 mM Glutathione added to PRBCs", "experimental": "The concentration of GSH was calculated based on the absorbance at 412 nm using a Beckman DU20 (Beckman, Irvine, Calif.) single wavelength spectrometer."}, "[5]": {"test_system": "Staphylococcus epidermidis", "type": "cell-based"}, "cell-free HIV-IIIB": {"test_system": "cell-free HIV-IIIB", "type": "cell-based", "details": "for Log Kill / Log Titer: no PIC-1, GSH 30 mM"}}, "note": "Where a name gives a salt, the structure may show the parent alone. Read-outs that look alike come from different tables or passages of the source.", "data": [{"smiles": "O=S(=O)(O)CCS", "note": "[MENSA, mercaptoethanesulfonic acid sodium salt]", "values": [{"measurement": "Log Kill", "setting": "[1]", "result": 2.3, "unit": "log"}]}, {"smiles": "O=C(CCNc1c2ccccc2nc2ccccc12)OCCN(CCCl)CCCl", "note": "[PIC-1, β-alanine, N-(acridin-9-yl), 2-[bis(2-chloroethyl)amino]ethyl ester]", "values": [{"measurement": "half-life", "setting": "physchem [2]", "result": 32, "unit": "min"}, {"measurement": "half-life", "setting": "physchem [3]; pH 2.2", "result": 450, "unit": "min"}, {"measurement": "half-life", "setting": "physchem [3]; pH 6", "result": 25, "unit": "min"}]}, {"smiles": "O=C(CCNc1c2ccccc2nc2ccccc12)NCCN(CCCl)CCCl", "note": "[PIC-2, P-alanine, N-(acridin-9-yl), 2-[bis(2-chloroethyl)amino]ethyl amide]", "values": [{"measurement": "RBC survival compared to control", "setting": "[4]", "result": "substantially the same as control"}, {"measurement": "recovery or lifespan of treated RBCs compared to label-only controls", "setting": "[4]", "result": "No difference"}]}, {"smiles": "N[C@@H](CS)C(=O)O", "note": "[cysteine]", "values": [{"measurement": "Log Kill", "setting": "Yersinia enterocolitica", "result": 0, "unit": "log"}, {"measurement": "Log Titer", "setting": "Yersinia enterocolitica", "result": 7.4, "unit": "log"}]}, {"smiles": "N[C@@H](CCC(=O)N[C@@H](CS)C(=O)NCC(=O)O)C(=O)O", "note": "[glutathione]", "values": [{"measurement": "Log Kill", "setting": "Yersinia enterocolitica", "result": 0, "unit": "log"}, {"measurement": "Log Titer", "setting": "Yersinia enterocolitica", "result": 7.4, "unit": "log"}, {"measurement": "reduction of inactivation", "setting": "Yersinia enterocolitica", "result": "1 to 2", "unit": "log kill"}, {"measurement": "Absorption 412 nm Supernatant", "setting": "red blood cell membranes; Time 0 min", "result": 0.33}, {"measurement": "Absorption 412 nm Total", "setting": "red blood cell membranes; Time 0 min", "result": 0.230}, {"measurement": "GSH Concentration Supernatant", "setting": "red blood cell membranes; Time 0 min", "result": 3.071, "unit": "mM"}, {"measurement": "GSH Concentration Total", "setting": "red blood cell membranes; Time 0 min", "result": 5.286, "unit": "mM"}, {"measurement": "Absorption 412 nm Supernatant", "setting": "red blood cell membranes; Time 60 min", "result": 0.318}, {"measurement": "Absorption 412 nm Total", "setting": "red blood cell membranes; Time 60 min", "result": 0.227}, {"measurement": "GSH Concentration Supernatant", "setting": "red blood cell membranes; Time 60 min", "result": 2.96, "unit": "mM"}, {"measurement": "GSH Concentration Total", "setting": "red blood cell membranes; Time 60 min", "result": 5.217, "unit": "mM"}, {"measurement": "Absorption 412 nm Supernatant", "setting": "red blood cell membranes; Time 120 min", "result": 0.312}, {"measurement": "Absorption 412 nm Total", "setting": "red blood cell membranes; Time 120 min", "result": 0.231}, {"measurement": "GSH Concentration Supernatant", "setting": "red blood cell membranes; Time 120 min", "result": 2.90, "unit": "mM"}, {"measurement": "GSH Concentration Total", "setting": "red blood cell membranes; Time 120 min", "result": 5.308, "unit": "mM"}, {"measurement": "Absorption 412 nm Supernatant", "setting": "red blood cell membranes; Time 270 min", "result": 0.306}, {"measurement": "Absorption 412 nm Total", "setting": "red blood cell membranes; Time 270 min", "result": 0.213}, {"measurement": "GSH Concentration Supernatant", "setting": "red blood cell membranes; Time 270 min", "result": 2.85, "unit": "mM"}, {"measurement": "GSH Concentration Total", "setting": "red blood cell membranes; Time 270 min", "result": 4.898, "unit": "mM"}, {"measurement": "Absorption 412 nm Supernatant", "setting": "red blood cell membranes; Time 1080 min", "result": 0.297}, {"measurement": "Absorption 412 nm Total", "setting": "red blood cell membranes; Time 1080 min", "result": 0.227}, {"measurement": "GSH Concentration Supernatant", "setting": "red blood cell membranes; Time 1080 min", "result": 2.77, "unit": "mM"}, {"measurement": "GSH Concentration Total", "setting": "red blood cell membranes; Time 1080 min", "result": 5.217, "unit": "mM"}, {"measurement": "Absorption 412 nm Supernatant", "setting": "red blood cell membranes; Time 1440 min", "result": 0.296}, {"measurement": "Absorption 412 nm Total", "setting": "red blood cell membranes; Time 1440 min", "result": 0.220}, {"measurement": "GSH Concentration Supernatant", "setting": "red blood cell membranes; Time 1440 min", "result": 2.76, "unit": "mM"}, {"measurement": "GSH Concentration Total", "setting": "red blood cell membranes; Time 1440 min", "result": 5.058, "unit": "mM"}, {"measurement": "recovery or lifespan of treated RBCs compared to label-only controls", "setting": "[4]", "result": "No difference"}, {"measurement": "Log Kill", "setting": "[5]", "result": 0, "unit": "log"}, {"measurement": "Log Titer", "setting": "[5]", "result": 7.5, "unit": "log"}, {"measurement": "reduction of HIV infectivity", "setting": "cell-free HIV-IIIB; 30 mM glutathione alone (samples 2 and 4 compared to samples 1 and 3)", "result": "0.3 to 0.6", "unit": "logs"}, {"measurement": "Log Kill", "setting": "cell-free HIV-IIIB; 12 hour incubation (sample 4)", "result": 0.6, "unit": "log"}, {"measurement": "Log Titer", "setting": "cell-free HIV-IIIB; 12 hour incubation (sample 4)", "result": 6.4, "unit": "log"}, {"measurement": "Log Kill", "setting": "cell-free HIV-IIIB; no incubation (sample 2)", "result": 0.3, "unit": "log"}, {"measurement": "Log Titer", "setting": "cell-free HIV-IIIB; no incubation (sample 2)", "result": 6.9, "unit": "log"}]}]}
